Where two headings read alike, the source gives them in different places.
How the values were obtained:
[1] = test system: phosphorylated 4E-BP1 Thr37/46 (p4E-BP1 Thr37/46), mTORC1 activity, PC3 cells; test: mTOR target engagement assay, immunofluorescent cell-based, p4E-BP1 Thr37/46 readout (mTORC1 activity); conditions: Homo sapiens, read-out: p4E-BP1 Thr37/46 IC50
In short: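 PTEN-mutant PC3 prostate cells were treated with serially diluted compound in 5% FBS F12 medium (0.25% DMSO) for ninety minutes at 37° C, glyoxal-fixed, then immunostained overnight at 4° C for p4E-BP1 Thr37/46 with an Alexa Fluor 488 secondary. IC50 came from four-parameter fits of fluorescence, DMSO-only wells defining 100%.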

[2] = test system: phosphorylated AKT Ser473 (pAKT S473), mTORC2 activity, PC3 cells; test: mTOR target engagement assay, immunofluorescent cell-based, pAKT S473 readout (mTORC2 activity)
In short: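 After blocking, cells were stained overnight at 4 °C with anti-pAKT S473 antibody, then a fluorescent secondary; inhibition was read as reduced fluorescence intensity.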

[3] = Homo sapiens, PC-3, Table 3-1, PC3 cells
[4] = PC-3, PC3 cells, compound treatment ninety minutes at 37° C.
[5] = Homo sapiens, PC-3, PC3 cells, compound treatment ninety minutes at 37° C.

Row | Structure (SMILES) | IC50 ([1]; PC-3, Table 3-1, PC3 cells) | IC50 [2, 3] | IC50 [1, 4] | IC50 [2, 5] | other results
1 | CS(=O)(=O)c1c([C@H]2CC3CC[C@H](C2)N3C(=O)c2cn[nH]n2)nc2c(-c3cnn(-c4ccc(F)cc4)c3)cnn2c1N [Compound 3.178, ((1R,3s,5S)-3-(7-amino-3-(1-(4-fluorophenyl)-1H-pyrazol-4-yl)-6-(methylsulfonyl)pyrazolo[1,5-a]pyrimidin-5-yl)-8-azabicyclo[3.2.1]octan-8-yl)(2H-1,2,3-triazol-4-yl)methanone] | 1000 to 10000 nM | 1000 to 10000 nM |  |  | 
2 | CS(=O)(=O)c1c([C@@H]2C[C@H]3CC[C@@H](C2)N3C(=O)c2nnc[nH]2)nc2c(-c3cnn(-c4ccccc4)c3)cnn2c1N [Compound 3.97, ((1R,3s,5S)-3-(7-amino-6-(methylsulfonyl)-3-(1-phenyl-1H-pyrazol-4-yl)pyrazolo[1,5-a]pyrimidin-5-yl)-8-azabicyclo[3.2.1]octan-8-yl)(4H-1,2,4-triazol-3-yl)methanone] | 1 to 100 nM | 1 to 100 nM |  |  | 
3 | CNC(=O)Nc1ccc(-c2cnn3c(N)cc([C@@H]4C[C@H]5CC[C@@H](C4)N5C(=O)c4nnc[nH]4)nc23)cc1 [Compound 8.80, 1-(4-(5-((1R,3s,5S)-8-(4H-1,2,4-triazole-3-carbonyl)-8-azabicyclo[3.2.1]octan-3-yl)-7-aminopyrazolo[1,5-a]pyrimidin-3-yl)phenyl)-3-methylurea] |  |  |  |  | IC50 ([1]; PC-3, PC3 cells): > 10000 nM; IC50 ([2]; Homo sapiens, PC-3, PC3 cells): > 10000 nM
4 | CC(=O)c1c([C@@H]2C[C@H]3CC[C@@H](C2)N3C(=O)c2nnc[nH]2)nc2c(-c3cnc(C(C)O)s3)cnn2c1N (stereo partly drawn) [Compound 7.36, 1-(5-((1R,3s,5S)-8-(4H-1,2,4-triazole-3-carbonyl)-8-azabicyclo[3.2.1]octan-3-yl)-7-amino-3-(2-(1-hydroxyethyl)thiazol-5-yl)pyrazolo[1,5-a]pyrimidin-6-yl)ethanone] |  |  | 1000 to 10000 nM | 1000 to 10000 nM | 
5 | CC(=O)c1c([C@@H]2C[C@H]3CC[C@@H](C2)N3C(=O)c2nnc[nH]2)nc2c(-c3cnc4c(c3)CCCC4O)cnn2c1N (stereo partly drawn) [Compound 7.58, 1-(5-((1R,3s,5S)-8-(4H-1,2,4-triazole-3-carbonyl)-8-azabicyclo[3.2.1]octan-3-yl)-7-amino-3-(8-hydroxy-5,6,7,8-tetrahydroquinolin-3-yl)pyrazolo[1,5-a]pyrimidin-6-yl)ethanone] |  |  |  |  | IC50 ([1]; PC-3, PC3 cells): 1 to 100 nM; IC50 ([2]; PC3 cells): 1 to 100 nM
6 | CCn1ccc(-c2ccc(-c3cnn4c(N)c(C(C)=O)c([C@@H]5C[C@H]6CC[C@@H](C5)N6C(=O)c5nnc[nH]5)nc34)cn2)n1 [Compound 1.1.138, 1-(5-((1R,3s,5S)-8-(4H-1,2,4-triazole-3-carbonyl)-8-azabicyclo[3.2.1]octan-3-yl)-7-amino-3-(6-(1-ethyl-1H-pyrazol-3-yl)pyridin-3-yl)pyrazolo[1,5-a]pyrimidin-6-yl)ethanone] |  |  | 1 to 100 nM | 1 to 100 nM | 
7 | CC(=O)c1c([C@@H]2C[C@H]3CC[C@@H](C2)N3C(=O)c2ccn[nH]2)nc2c(-c3ccc(-c4ccn(C)n4)nc3)cnn2c1N [Compound 1.1.121, 1-(5-((1R,3s,5S)-8-(1H-pyrazole-5-carbonyl)-8-azabicyclo[3.2.1]octan-3-yl)-7-amino-3-(6-(1-methyl-1H-pyrazol-3-yl)pyridin-3-yl)pyrazolo[1,5-a]pyrimidin-6-yl)ethanone] |  |  | 100 to 1000 nM | 1 to 100 nM | 
8 | Cc1cnc(-c2ccc(-c3cnn4c(N)c(S(C)(=O)=O)c([C@@H]5C[C@H]6CC[C@@H](C5)N6C(=O)C(N)C(F)(F)F)nc34)cn2)s1 (stereo partly drawn) [Compound 3.188, 2-amino-1-((1R,3s,5S)-3-(7-amino-6-(methylsulfonyl)-3-(6-(5-methylthiazol-2-yl)pyridin-3-yl)pyrazolo[1,5-a]pyrimidin-5-yl)-8-azabicyclo[3.2.1]octan-8-yl)-3,3,3-trifluoropropan-1-one] | 1000 to 10000 nM | 1000 to 10000 nM |  |  | 
